Reference: ChEMBL document CHEMBL1145057, “Water soluble, core-modified porphyrins. 3. Synthesis, photophysical properties, and in vitro studies of photosensitization, uptake, and localization with carboxylic acid-substituted derivatives” (J Med Chem, 2003)

Experiment: Partition coefficient (logP)
Assay type: physicochemical
Conditions: octanol/water

Question: Which logP does the source give for `O=C(O)COc1ccc(-c2c3nc(c(-c4ccccc4)c4ccc(s4)c(-c4ccccc4)c4nc(c(-c5ccc(OCC(=O)O)cc5)c5ccc2[se]5)C=C4)C=C3)cc1` here?
Answer: -0.67

Question: With `O=C(O)COc1ccc(-c2c3nc(c(-c4ccc(OCC(=O)O)cc4)c4ccc(s4)c(-c4ccc(OCC(=O)O)cc4)c4nc(c(-c5ccccc5)c5ccc2s5)C=C4)C=C3)cc1` as the compound, how does the logP read?
Answer: -1.49

Question: For `O=C(O)COc1ccc(-c2c3nc(c(-c4ccccc4)c4ccc(s4)c(-c4ccccc4)c4nc(c(-c5ccc(OCC(=O)O)cc5)c5ccc2s5)C=C4)C=C3)cc1`, which logP is on record?
Answer: 0.036

Question: Which logP does the source give for `O=C(O)COc1ccc(-c2c3nc(c(-c4ccccc4)c4ccc(s4)c(-c4ccccc4)c4nc(c(-c5ccccc5)c5ccc2s5)C=C4)C=C3)cc1` here?
Answer: > 3.5

Question: Which logP does the source give for `O=S(=O)(O)c1ccc(-c2c3nc(c(-c4ccc(F)cc4)c4ccc(s4)c(-c4ccc(F)cc4)c4nc(c(-c5ccc(S(=O)(=O)O)cc5)c5ccc2s5)C=C4)C=C3)cc1` here?
Answer: -1.9

Question: For `O=C(O)COc1ccc(-c2c3nc(c(-c4ccc(OCC(=O)O)cc4)c4ccc(s4)c(-c4ccc(OCC(=O)O)cc4)c4nc(c(-c5ccc(OCC(=O)O)cc5)c5ccc2s5)C=C4)C=C3)cc1`, which logP is on record?
Answer: -0.95
